Assays:
Assay in all cases: relative viability (nuclei count vs DMSO), 5 days (fraction); higher = more cells survive
BEN = test system: BEN
Outline: (§1)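 Lung cancer cell lines in 1536-well plates were dosed by pin tool the day after seeding, either with one drug alone or with a fixed anchor-drug dose plus five library-drug doses (not always all listed) in √10 steps. After 5 days, cells were fixed and their nuclei stained in one step (final 0.05% Triton X-100, 1% formaldehyde, 1 ug/ml Hoechst), then counted on 4× images. Relative viability is the nuclei count in treated wells divided by that in vehicle wells. Values are medians of duplicate plates.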

CAL-12T = test system: CAL-12T
Outline: as §1

COR-L23 = test system: COR-L23
Outline: as §1

HCC-44 = test system: HCC-44
Outline: as §1

LU99A = test system: LU99A
Outline: as §1

LXF-289 = test system: LXF-289
Outline: as §1

NCI-H1355 = test system: NCI-H1355
Outline: as §1

NCI-H1437 = test system: NCI-H1437
Outline: as §1

NCI-H1650 = test system: NCI-H1650
Outline: as §1

NCI-H1651 = test system: NCI-H1651
Outline: as §1

NCI-H1666 = test system: NCI-H1666
Outline: as §1

NCI-H1755 = test system: NCI-H1755
Outline: as §1

NCI-H1792 = test system: NCI-H1792
Outline: as §1

NCI-H1993 = test system: NCI-H1993
Outline: as §1

NCI-H2085 = test system: NCI-H2085
Outline: as §1

NCI-H2087 = test system: NCI-H2087
Outline: as §1

NCI-H2170 = test system: NCI-H2170
Outline: as §1

NCI-H460 = test system: NCI-H460
Outline: as §1

NCI-H520 = test system: NCI-H520
Outline: as §1

PC-14 = test system: PC-14
Outline: as §1

SK-MES-1 = test system: SK-MES-1
Outline: as §1

In the case of `Cc1csc(=NC2CCCCC2)n1/N=C/c1ccc(O)c(O)c1O` [MIM1] + O=C(c1cc(Cc2n[nH]c(=O)c3ccccc23)ccc1F)N1CCN(C(=O)C2CC2)CC1 [Olaparib] (partner 8 µM), the relative viability (BEN; first compound 0.2 µM) is reported as 1.07, the relative viability (BEN; first compound 0.6325 µM) is reported as 1.18 and the relative viability (BEN; first compound 2 µM) is reported as 1.09. The relative viability (BEN; first compound 6.325 µM) was 1.01, the relative viability (BEN; first compound 20 µM) was 0.239 and the relative viability (CAL-12T; first compound 0.2 µM) was 0.708. For the same compound, the relative viability (CAL-12T; first compound 0.6325 µM) was 0.685, the relative viability (CAL-12T; first compound 2 µM) was 0.682 and the relative viability (CAL-12T; first compound 6.325 µM) was 0.505. It also gave a relative viability (CAL-12T; first compound 20 µM) of 0.396, a relative viability (COR-L23; first compound 0.2 µM) of 0.29 and a relative viability (COR-L23; first compound 0.6325 µM) of 0.365. For the same compound, the relative viability (COR-L23; first compound 2 µM) was 0.287, the relative viability (COR-L23; first compound 6.325 µM) was 0.224 and the relative viability (COR-L23; first compound 20 µM) was 0.164. It also gave a relative viability (HCC-44; first compound 0.2 µM) of 1.02, a relative viability (HCC-44; first compound 0.6325 µM) of 0.975 and a relative viability (HCC-44; first compound 2 µM) of 0.859. For the same compound, the relative viability (HCC-44; first compound 6.325 µM) was 0.675, the relative viability (HCC-44; first compound 20 µM) was 0.455 and the relative viability (LU99A; first compound 0.2 µM) was 0.298. For the same compound, the relative viability (LU99A; first compound 0.6325 µM) was 0.246, the relative viability (LU99A; first compound 2 µM) was 0.207 and the relative viability (LU99A; first compound 6.325 µM) was 0.272. For the same compound, the relative viability (LU99A; first compound 20 µM) was 0.125, the relative viability (LXF-289; first compound 0.2 µM) was 1.04 and the relative viability (LXF-289; first compound 0.6325 µM) was 0.844. It also gave a relative viability (LXF-289; first compound 2 µM) of 1.13, a relative viability (LXF-289; first compound 6.325 µM) of 0.915 and a relative viability (LXF-289; first compound 20 µM) of 0.179. For the same compound, the relative viability (NCI-H1355; first compound 0.2 µM) was 0.731, the relative viability (NCI-H1355; first compound 0.6325 µM) was 0.664 and the relative viability (NCI-H1355; first compound 2 µM) was 0.803. For the same compound, the relative viability (NCI-H1355; first compound 6.325 µM) was 0.603, the relative viability (NCI-H1355; first compound 20 µM) was 0.297 and the relative viability (NCI-H1437; first compound 0.2 µM) was 0.615. For the same compound, the relative viability (NCI-H1437; first compound 0.6325 µM) was 0.644, the relative viability (NCI-H1437; first compound 2 µM) was 0.58 and the relative viability (NCI-H1437; first compound 6.325 µM) was 0.192. The relative viability (NCI-H1437; first compound 20 µM) was 0.206, the relative viability (NCI-H1650; first compound 0.2 µM) was 0.627 and the relative viability (NCI-H1650; first compound 0.6325 µM) was 0.828. It also gave a relative viability (NCI-H1650; first compound 2 µM) of 0.499, a relative viability (NCI-H1650; first compound 6.325 µM) of 0.226 and a relative viability (NCI-H1650; first compound 20 µM) of 0.233. It also gave a relative viability (NCI-H1651; first compound 0.2 µM) of 0.184, a relative viability (NCI-H1651; first compound 0.6325 µM) of 0.174 and a relative viability (NCI-H1651; first compound 2 µM) of 0.177. For the same compound, the relative viability (NCI-H1651; first compound 6.325 µM) was 0.159, the relative viability (NCI-H1651; first compound 20 µM) was 0.153 and the relative viability (NCI-H1666; first compound 0.2 µM) was 0.71. The relative viability (NCI-H1666; first compound 0.6325 µM) was 0.739, the relative viability (NCI-H1666; first compound 2 µM) was 0.665 and the relative viability (NCI-H1666; first compound 6.325 µM) was 0.72. The relative viability (NCI-H1666; first compound 20 µM) was 0.707, the relative viability (NCI-H1755; first compound 0.2 µM) was 0.857 and the relative viability (NCI-H1755; first compound 0.6325 µM) was 0.84. For the same compound, the relative viability (NCI-H1755; first compound 2 µM) was 0.94, the relative viability (NCI-H1755; first compound 6.325 µM) was 0.699 and the relative viability (NCI-H1755; first compound 20 µM) was 0.262. The relative viability (NCI-H1792; first compound 0.2 µM) was 0.469, the relative viability (NCI-H1792; first compound 0.6325 µM) was 0.368 and the relative viability (NCI-H1792; first compound 2 µM) was 0.454. For the same compound, the relative viability (NCI-H1792; first compound 6.325 µM) was 0.279, the relative viability (NCI-H1792; first compound 20 µM) was 0.398 and the relative viability (NCI-H1993; first compound 0.2 µM) was 1. It also gave a relative viability (NCI-H1993; first compound 0.6325 µM) of 0.819, a relative viability (NCI-H1993; first compound 2 µM) of 0.949 and a relative viability (NCI-H1993; first compound 6.325 µM) of 0.873. The relative viability (NCI-H1993; first compound 20 µM) was 0.432, the relative viability (NCI-H2085; first compound 0.2 µM) was 0.768 and the relative viability (NCI-H2085; first compound 0.6325 µM) was 0.797. It also gave a relative viability (NCI-H2085; first compound 2 µM) of 0.771, a relative viability (NCI-H2085; first compound 6.325 µM) of 0.596 and a relative viability (NCI-H2085; first compound 20 µM) of 0.641. It also gave a relative viability (NCI-H2087; first compound 0.2 µM) of 0.535, a relative viability (NCI-H2087; first compound 0.6325 µM) of 0.701 and a relative viability (NCI-H2087; first compound 2 µM) of 0.702. It also gave a relative viability (NCI-H2087; first compound 6.325 µM) of 0.481, a relative viability (NCI-H2087; first compound 20 µM) of 0.241 and a relative viability (NCI-H2170; first compound 0.2 µM) of 0.539. The relative viability (NCI-H2170; first compound 0.6325 µM) was 0.533, the relative viability (NCI-H2170; first compound 2 µM) was 0.528 and the relative viability (NCI-H2170; first compound 6.325 µM) was 0.269. It also gave a relative viability (NCI-H2170; first compound 20 µM) of 0.141, a relative viability (NCI-H460; first compound 0.2 µM) of 0.403 and a relative viability (NCI-H460; first compound 0.6325 µM) of 0.411. The relative viability (NCI-H460; first compound 2 µM) was 0.195, the relative viability (NCI-H460; first compound 6.325 µM) was 0.213 and the relative viability (NCI-H460; first compound 20 µM) was 0.0637. The relative viability (NCI-H520; first compound 0.2 µM) was 0.333, the relative viability (NCI-H520; first compound 0.6325 µM) was 0.346 and the relative viability (NCI-H520; first compound 2 µM) was 0.349. For the same compound, the relative viability (NCI-H520; first compound 6.325 µM) was 0.242, the relative viability (NCI-H520; first compound 20 µM) was 0.209 and the relative viability (PC-14; first compound 0.2 µM) was 0.276. It also gave a relative viability (PC-14; first compound 0.6325 µM) of 0.283, a relative viability (PC-14; first compound 2 µM) of 0.228 and a relative viability (PC-14; first compound 6.325 µM) of 0.232. It also gave a relative viability (PC-14; first compound 20 µM) of 0.0784, a relative viability (SK-MES-1; first compound 0.2 µM) of 0.743 and a relative viability (SK-MES-1; first compound 0.6325 µM) of 0.657. The relative viability (SK-MES-1; first compound 2 µM) was 0.548, the relative viability (SK-MES-1; first compound 6.325 µM) was 0.259 and the relative viability (SK-MES-1; first compound 20 µM) was 0.108.

Reference: the supplement of paper PMC10307832
